pEC50, pIC50: −log10 of the molar value. Like-named read-outs stand apart in the source and are kept apart here.
Columns and labels:
TNFα = test: Cot Monocyte TNFα Cell Based Assay
Human Cot = Human Cot (Homo sapiens (Human), UniProt P41279); test: High Throughput Cot Biochemical Assay
[1] = Homo sapiens, Monocyte, read-out: EC50 TNF, LPS-stimulated human monocytes, TNFα
[2] = IC50 HTRF, Cot HTRF (TR-FRET) biochemical assay
[3] = read-out: EC50 TNF, LPS-stimulated human monocytes, TNFα TR-FRET
[4] = read-out: IC50 HTRF, Cot HTRF (TR-FRET KinEASE) biochemical assay, 400 μM ATP
[5] = read-out: EC50 TNF, LPS-stimulated human monocytes, TNFα
[6] = read-out: IC50 HTRF, Cot HTRF (TR-FRET) biochemical assay
[7] = Homo sapiens, Monocyte, read-out: EC50 TNF, LPS-stimulated human monocytes, TNFα TR-FRET
[8] = IC50 HTRF, Cot HTRF (TR-FRET KinEASE) biochemical assay, 400 μM ATP

Chain of Human Cot (P41279 30-397): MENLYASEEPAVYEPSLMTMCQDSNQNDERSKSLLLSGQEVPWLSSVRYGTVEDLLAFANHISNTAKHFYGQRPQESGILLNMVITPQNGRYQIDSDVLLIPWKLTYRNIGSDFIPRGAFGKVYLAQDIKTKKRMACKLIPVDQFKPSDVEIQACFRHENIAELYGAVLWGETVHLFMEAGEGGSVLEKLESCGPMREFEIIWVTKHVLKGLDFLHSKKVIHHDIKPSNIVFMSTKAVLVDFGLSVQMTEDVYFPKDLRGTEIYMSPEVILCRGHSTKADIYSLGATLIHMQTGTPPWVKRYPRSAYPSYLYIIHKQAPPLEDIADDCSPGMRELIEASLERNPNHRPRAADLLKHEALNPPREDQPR

Row | Compound | pEC50 (TNFα; [1]) | pIC50 (Human Cot; [2]) | other results
1 | CC[C@@H](Nc1c(C#N)cnc2c(Cl)cc(N[C@H](c3c[nH]nn3)c3cccnc3C)cc12)c1ccccc1 [Example 220, 8-chloro-6-(((S)-(2-methylpyridin-3-yl)(1H-1,2,3-triazol-4-yl)methyl)amino)-4-(((R)-1-phenylpropyl)amino)quinoline-3-carbonitrile] | 6.46 | 8.40 | 
2 | [2H]C([2H])([2H])C([2H])([2H])[C@@H](Nc1c(C#N)cnc2c(Cl)cc(N[C@]([2H])(c3ccc(F)nc3)c3cn(C4CC4)nn3)cc12)c1ccccc1 [Example 108, 8-chloro-6-(((R)-(1-cyclopropyl-1H-1,2,3-triazol-4-yl)(6-fluoropyridin-3-yl)methyl-d)amino)-4-(((R)-1-phenyl-propyl-2,2,3,3,3-d5)amino)quinoline-3-carbonitrile] | < 5.00 | 6.04 | 
3 | Cc1nc(F)ccc1[C@H](Nc1cc(C#N)c2ncc(C#N)c(NCC(C)(C)C)c2c1)c1nnn(C2CC2)c1C1CC1 [Example 857, (S)-6-(((l,5-dicyclopropyl-1H-1,2,3-triazol-4-yl)(6-fluoro-2-methylpyridin-3-yl)methyl)amino)-4-(neopentylamino)quinoline-3,8-dicarbonitrile] |  |  | pEC50 (TNFα; [3]): 6.74; pIC50 (Human Cot; [4]): 8.40
4 | Cn1cc2c([C@H](Nc3cc(C#N)c4ncc(C#N)c(NCC(C)(C)C)c4c3)c3cn(C4(C(F)(F)F)CC4)nn3)cccc2n1 [Example 558, (S)-6-(((2-methyl-2H-indazol-4-yl)(1-(1-(trifluoromethyl)cyclopropyl)-1H-1,2,3-triazol-4-yl)methyl)amino)-4-(neopentyl-amino)quinoline-3,8-dicarbonitrile] | 7.14 | 8.52 | 
5 | Cc1ncsc1[C@H](Nc1cc(Cl)c2ncc(C#N)c(Nc3cccc(Cl)c3F)c2c1)c1cn(C(C)C)nn1 [Example 252, (R)-8-chloro-4-((3-chloro-2-fluorophenyl)amino)-6-(((1-isopropyl-1H-1,2,3-triazol-4-yl)(4-methylthiazol-5-yl)methyl)-amino)quinoline-3-carbonitrile] | 6.92 | 8.22 | 
6 | N#Cc1cnc2c(Cl)cc(N[C@@H](c3cccnc3)c3cn(CCN4CCOCC4)nn3)cc2c1Nc1ccc(F)c(Cl)c1 [Example 335, (S)-8-chloro-4-((3-chloro-4-fluorophenyl)amino)-6-(((1-(2-morpholinoethyl)-1H-1,2,3-triazol-4-yl)(pyridin-3-yl)methyl)amino)-quinoiine-3-carbonitrile] |  |  | pEC50 (TNFα; [5]): 6.39; pIC50 (Human Cot; [6]): 8.00
7 | CC(C)(CNc1c(C#N)cnc2c(C#N)cc(N[C@H](c3cn(C45CC(C4)C5)nn3)c3cccc4ncccc34)cc12)C(F)(F)F [Example 897, (S)-6-(((1-(bicyclo[1.1.1]pentan-1-yl)-1H-1,2,3-triazol-4-yl)(quinolin-5-yl)methyl)amino)-4-((3,3,3-trifluoro-2,2-dimethylpropyl)amino)quinoline-3,8-dicarbonitrile] |  |  | pEC50 (TNFα; [7]): 7.74; pIC50 (Human Cot; [8]): 8.70
8 | CN1Cc2cccc([C@H](Nc3cc(C#N)c4ncc(C#N)c(NCC(C)(C)C)c4c3)c3cn(C4CC4)nn3)c2C1=O [Example 77, (S)-6-(((1-cyclopropyl-1H-1,2,3-triazol-4-yl)(2-methyl-3-oxoisoindolin-4-yl)methyl)amino)-4-(neopentylamino)quinoline-3,8-dicarbonitrile] | 6.81 | 8.52 | 
9 | CC1(C)COCC[C@@H]1Nc1c(C#N)cnc2c(C#N)cc(N[C@H](c3cn(C4(C(F)(F)F)CC4)nn3)c3cccc4ncsc34)cc12 [Example 475, 6-(((S)-benzo[d]thiazol-7-yl(1-(1-(trifluoromethyl)cyclopropyl)-1H-1,2,3-triazol-4-yl)methyl)amino)-4-(((S)-3,3-dimethyltetrahydro-2H-pyran-4-yl)amino)quinoline-3,8-dicarbonitrile] | 6.59 | 7.70 | 
10 | [2H][C@](Nc1cc(C#N)c2ncc(C#N)c(NCC(C)(C)C)c2c1)(c1ccc(F)nc1)c1cn(C)nn1 [Example 99, (S)-6-(((6-fluoropyridin-3-yl)(1-methyl-1H-1,2,3-triazol-4-yl)methyl-d)amino)-4-(neopentylamino)quinoline-3,8-dicarbonitrile] | 6.84 | 8.52 | 
11 | CC(C)(C)CNc1c(C#N)cnc2c(C#N)cc(N[C@H](c3cn(C4CC4)nn3)c3cccc4cnccc34)cc12 [Example 468, (S)-6-(((1-cyclopropyl-1H-1,2,3-triazol-4-yl)(isoquinolin-5-yl)methyl)amino)-4-(neopentylamino)quinoline-3,8-dicarbonitrile] | 7.74 | 9.00 | 
12 | Cc1nc(F)ccc1[C@H](Nc1cc(C#N)c2ncc(C#N)c(NCC(C)(C)C)c2c1)c1cn(C2(C(C)(C)C)CC2)nn1 [Example 860, (S)-6-(((1-(1-(tert-butyl)cyclopropyl)-1H-1,2,3-triazol-4-yl)(6-fluoro-2-methylpyridin-3-yl)methyl)amino)-4-(neopentylamino)quinoline-3,8-dicarbonitrile] |  |  | pEC50 (TNFα; [7]): 7.51; pIC50 (Human Cot; [8]): 8.52
13 | Cc1nc(F)ccc1[C@H](Nc1cc(Cl)c2ncc(C#N)c(NCC(C)(C)C)c2c1)c1nnn(C2(C(F)F)CC2)c1F [Example 960, (S)-8-chloro-6-(((1-(1-(difluoromethyl)cyclopropyl)-5-fluoro-1H-1,2,3-triazol-4-yl)(6-fluoro-2-methylpyridin-3-yl)methyl)amino)-4-(neopentylamino)quinoline-3-carbonitrile] |  |  | pEC50 (TNFα; [7]): 7.26; pIC50 (Human Cot; [8]): 8.15
14 | CC(C)(CNc1c(C#N)cnc2c(C#N)cc(N[C@H](c3cn(C4(C(F)F)CC4)nn3)c3cccc4c(=O)[nH]ccc34)cc12)C(F)(F)F [Example 842] |  |  | pEC50 (TNFα; [3]): 6.25; pIC50 (Human Cot; [4]): 8.52
15 | CC(C)(C)N1CCC(n2cc([C@@H](Nc3cc(Cl)c4ncc(C#N)c(Nc5ccc(F)c(F)c5)c4c3)c3cccnc3)nn2)CC1 [Example 285, (S)-6-(((1-(1-(tert-butyl)piperidin-4-yl)-1H-1,2,3-triazol-4-yl)(pyridin-3-yl)methyl)amino)-8-chloro-4-((3,4-difluorophenyl)amino)quinoline-3-carbonitrile] | 6.66 | 8.10 | 
16 | CC(C)(C)CNc1c(C#N)cnc2c(Cl)cc(N[C@H](c3cn(C4(C(F)(F)F)CC4)nn3)c3cnn4ncccc34)cc12 [Example 493, (S)-8-chloro-4-(neopentylamino)-6-((pyrazolo[1,5-b]pyridazin-3-yl(1-(1-(trifluoromethyl)cyclopropyl)-1H-1,2,3-triazol-4-yl)methyl)amino)quinoline-3-carbonitrile] | 6.00 | 7.51 | 
17 | Cc1nc(F)ccc1[C@H](Nc1cc(Cl)c2ncc(C#N)c(NCC(C)(C)C)c2c1)c1cn(C2(C(=O)N3CCOCC3)CC2)nn1 [Example 555, (S)-8-chloro-6-(((6-fluoro-2-methylpyridin-3-yl)(1-(1-(morpholine-4-carbonyl)cyclopropyl)-1H-1,2,3-triazol-4-yl)methyl)amino)-4-(neopentylamino)quinoline-3-carbonitrile] | 6.68 | 8.15 | 
18 | Cc1c([C@H](Nc2cc(Cl)c3ncc(C#N)c(NCC(C)(C)C)c3c2)c2cn(C3(C(F)(F)F)CC3)nn2)ccnc1Cl [Example 938, (S)-8-chloro-6-(((2-chloro-3-methylpyridin-4-yl)(1-(1-(trifluoromethyl)cyclopropyl)-1H-1,2,3-triazol-4-yl)methyl)amino)-4-(neopentylamino)quinoline-3-carbonitrile] |  |  | pEC50 (TNFα; [7]): 6.65; pIC50 (Human Cot; [8]): 7.59
19 | Cc1nc(F)ccc1[C@@H](Nc1cc(Cl)c2ncc(C#N)c(NC3[C@H]4CCC[C@H]34)c2c1)c1cn(C2(C(F)(F)F)CC2)nn1 (stereo partly drawn) [Example 607, 4-(((lR,5S)-bicyclo[3.1.0]hexan-6-yl)amino)-8-chloro-6-(((S)-(6-fluoro-2-methylpyridin-3-yl)(1-(1-(trifluoromethyl)cyclopropyl)-1H-1,2,3-triazol-4-yl)methyl)amino)quinoline-3-carbonitrile] |  |  | pEC50 (TNFα; [5]): 6.65; pIC50 (Human Cot; [6]): 7.68
20 | N#Cc1cnc2c(Cl)cc(N[C@H](c3cn(CCO)nn3)c3cccnc3Cl)cc2c1Nc1ccc(F)c(Cl)c1 [Example 331, (S)-8-chloro-4-((3-chloro-4-fluorophenyl)amino)-6-(((2-chloropyridin-3-yl)(1-(2-hydroxy-ethyl)-1H-1,2,3-triazol-4-yl)methyl)amino)quinoline-3-carbonitrile] | 6.76 | 8.52 | 

The next lines start with results.

Row | pEC50 (TNFα; [1]) | pIC50 (Human Cot; [2]) | Compound | other results
21 | 6.94 | 8.30 | CC(C)(C)CNc1c(C#N)cnc2c(Cl)cc(N[C@H](c3cn(C4(C(F)F)CC4)nn3)c3cccc4c(=O)n(CC(F)F)ccc34)cc12 [Example 743, (S)-8-chloro-6-(((2-(2,2-difluoroethyl)-1-oxo-1,2-dihydroisoquinolin-5-yl)(1-(1-(difluoromethyl)cyclopropyl)-1H-1,2,3-triazol-4-yl)methyl)amino)-4-(neopentylamino)quinoline-3-carbonitrile] | 
22 | 6.99 | 8.30 | CC(C)(C)CNc1c(C#N)cnc2c(C#N)cc(N[C@H](c3cn(C4(C(F)(F)F)CC4)nn3)c3ccc(C#N)c4cnccc34)cc12 [Example 670, (S)-6-(((8-cyanoisoquinolin-5-yl)(1-(1-(trifluoromethyl)cyclopropyl)-1H-1,2,3-triazol-4-yl)methyl)amino)-4-(neopentylamino)quinoline-3,8-dicarbonitrile] | 
23 | 6.00 | 7.96 | Cc1nc(F)ccc1[C@H](Nc1cc(Cl)c2ncc(C#N)c(NCC(C)(C)C)c2c1)c1cn(C2(C(=O)O)CC(F)(F)C2)nn1 [Example 624, (S)-1-(4-(((8-chloro-3-cyano-4-(neopentylamino)quinolin-6-yl)amino)(6-fluoro-2-methylpyridin-3-yl)methyl)-1H-1,2,3-triazol-1-yl)-3,3-difluorocyclobutane-1-carboxylic acid] | 
